Calls of active or inactive are those of the source. No cut-off for these calls is given here.
Columns and labels:
[1] = system: MM1.S; assay: Antiproliferative activity against human MM.1S cells assessed as inhibition of cell growth at upto 100 uM incubated for 72 hrs by microplate photometer analysis; assay type: functional, cell-based
[2] = target: Histone deacetylase; assay: Inhibition of human recombinant HDAC in human MM.1S cells using Boc-Lys(Epsilon-Ac)-AMC as substrate preincubated for 18 hrs followed by substrate addition and measured after 3 hrs by microplate reader analysis; assay type: cell-based; details: mm1.s
[3] = system: MM1.S; assay: cells; assay type: functional, cell-based; details: Homo sapiens, 72 h
Description: Antiproliferative activity against human MM.1S cells assessed as inhibition of cell growth incubated for 72 hrs by microplate photometer analysis

[4] = target: T1, Histone deacetylase 1 (Homo sapiens, UniProt Q13547); assay: Inhibition of C-terminal 6His tagged human recombinant full length HDAC1 (1 to 482 residues) using Z- Lys(Ac)-AMC as fluorogenic substrate incubated for 90 mins followed by trypsin addition and measured after 30 min by microplate reader analysis
T1 sequence (Q13547 whole entry, the tested form may be a part): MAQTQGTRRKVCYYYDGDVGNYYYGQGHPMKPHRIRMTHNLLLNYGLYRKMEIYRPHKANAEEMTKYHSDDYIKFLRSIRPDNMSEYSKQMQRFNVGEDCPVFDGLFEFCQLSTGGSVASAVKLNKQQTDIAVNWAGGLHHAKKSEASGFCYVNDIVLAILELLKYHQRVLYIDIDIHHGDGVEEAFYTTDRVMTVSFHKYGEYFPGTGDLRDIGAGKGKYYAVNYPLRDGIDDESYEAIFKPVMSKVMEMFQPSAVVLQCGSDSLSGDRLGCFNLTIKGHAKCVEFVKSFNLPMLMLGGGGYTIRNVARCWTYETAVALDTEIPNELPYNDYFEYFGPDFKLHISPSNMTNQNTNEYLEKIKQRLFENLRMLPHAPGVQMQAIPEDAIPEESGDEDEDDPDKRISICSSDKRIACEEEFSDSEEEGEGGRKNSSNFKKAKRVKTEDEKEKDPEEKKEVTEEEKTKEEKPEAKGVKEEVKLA

[5] = target: T2, Histone deacetylase 2 (Homo sapiens, UniProt Q92769)
T2 sequence (Q92769 whole entry, the tested form may be a part): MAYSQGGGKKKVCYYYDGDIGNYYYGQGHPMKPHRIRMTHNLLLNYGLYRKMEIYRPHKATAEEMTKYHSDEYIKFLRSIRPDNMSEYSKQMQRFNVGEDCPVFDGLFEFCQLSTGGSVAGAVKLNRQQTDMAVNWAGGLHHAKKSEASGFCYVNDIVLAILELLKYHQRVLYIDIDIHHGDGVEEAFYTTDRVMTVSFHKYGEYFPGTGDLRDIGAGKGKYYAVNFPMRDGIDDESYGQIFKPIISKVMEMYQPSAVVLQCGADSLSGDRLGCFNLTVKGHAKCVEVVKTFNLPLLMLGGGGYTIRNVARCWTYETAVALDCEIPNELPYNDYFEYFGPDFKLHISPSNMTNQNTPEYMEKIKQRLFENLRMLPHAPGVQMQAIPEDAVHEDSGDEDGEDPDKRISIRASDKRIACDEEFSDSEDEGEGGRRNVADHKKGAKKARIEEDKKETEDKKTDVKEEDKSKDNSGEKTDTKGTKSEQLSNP
Description: Inhibition of C-terminal flag tagged human recombinant full length HDAC2 (1 to 488 residues) using Z- Lys(Ac)-AMC as fluorogenic substrate incubated for 90 mins followed by trypsin addition and measured after 30 min by microplate reader analysis

[6] = target: T3, Protein deacetylase HDAC6 (Homo sapiens, UniProt Q9UBN7); assay: Inhibition of C-terminal GST tagged human recombinant full length HDAC6 (1 to 1215 residues) using Z- Lys(Ac)-AMC as fluorogenic substrate incubated for 90 mins followed by trypsin addition and measured after 30 min by microplate reader analysis
T3 sequence (Q9UBN7 whole entry): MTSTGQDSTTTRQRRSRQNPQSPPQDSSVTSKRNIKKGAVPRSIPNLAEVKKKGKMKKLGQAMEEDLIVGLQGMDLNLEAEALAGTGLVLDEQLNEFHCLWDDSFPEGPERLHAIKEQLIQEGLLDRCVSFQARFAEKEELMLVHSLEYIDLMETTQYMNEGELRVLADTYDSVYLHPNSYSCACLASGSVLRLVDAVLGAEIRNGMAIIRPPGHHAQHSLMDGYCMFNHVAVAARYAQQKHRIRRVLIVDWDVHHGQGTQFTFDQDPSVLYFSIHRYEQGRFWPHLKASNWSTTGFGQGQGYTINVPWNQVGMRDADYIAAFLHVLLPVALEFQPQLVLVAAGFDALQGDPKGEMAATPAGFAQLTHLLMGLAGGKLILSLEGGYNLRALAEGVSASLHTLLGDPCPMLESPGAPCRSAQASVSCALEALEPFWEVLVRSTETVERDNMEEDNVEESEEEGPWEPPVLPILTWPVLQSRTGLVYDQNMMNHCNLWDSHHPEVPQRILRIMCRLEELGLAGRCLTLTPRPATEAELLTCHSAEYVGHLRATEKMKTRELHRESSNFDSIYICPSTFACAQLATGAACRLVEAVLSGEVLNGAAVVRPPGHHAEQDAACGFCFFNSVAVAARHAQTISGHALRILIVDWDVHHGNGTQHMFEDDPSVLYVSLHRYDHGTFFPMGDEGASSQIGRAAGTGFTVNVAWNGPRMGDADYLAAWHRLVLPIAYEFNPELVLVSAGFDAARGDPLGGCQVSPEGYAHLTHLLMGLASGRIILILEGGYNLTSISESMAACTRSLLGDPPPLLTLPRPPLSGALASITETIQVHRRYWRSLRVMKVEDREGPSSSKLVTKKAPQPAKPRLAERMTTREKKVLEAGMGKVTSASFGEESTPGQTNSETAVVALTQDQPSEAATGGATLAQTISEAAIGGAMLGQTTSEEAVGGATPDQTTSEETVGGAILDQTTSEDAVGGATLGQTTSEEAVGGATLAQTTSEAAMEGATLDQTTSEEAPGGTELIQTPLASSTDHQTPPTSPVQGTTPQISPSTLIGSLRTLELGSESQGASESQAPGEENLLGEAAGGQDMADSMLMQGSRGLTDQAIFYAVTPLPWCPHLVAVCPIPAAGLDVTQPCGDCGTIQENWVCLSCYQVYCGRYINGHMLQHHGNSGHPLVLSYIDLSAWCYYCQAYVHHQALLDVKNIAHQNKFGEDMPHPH

[7] = target: T1, Histone deacetylase 1; assay: Induction of HDAC1 degradation in human MM1.S cells at 20 uM incubated for 24 hrs by immunoblot analysis; assay type: cell-based
[8] = target: T2, Histone deacetylase 2; assay: Induction of HDAC2 degradation in human MM1.S cells at 20 uM incubated for 24 hrs by immunoblot analysis; assay type: cell-based
[9] = target: T4, Protein deacetylase HDAC6 (Homo sapiens) (UniProt Q9UBN7); assay: Induction of HDAC6 degradation in human MM1.S cells at 20 uM incubated for 24 hrs by immunoblot analysis; assay type: cell-based
T4 sequence (whole entry): T3 sequence (Q9UBN7 whole entry)

[10] = target: Histone deacetylase 4 (Homo sapiens) (UniProt P56524); assay: Inhibition of N-terminal GST/C-terminal His-tagged human recombinant HDAC4 (627 to 1084 residues) expressed in baculovirus expression system using Boc-Lys(Tfa)-AMC as fluorogenic substrate at 10 uM incubated for 90 min followed by trypsin addition and measured after 30 min by microplate reader analysis; details: time 120.0 min
Histone deacetylase 4 (Homo sapiens), sequence (P56524 whole entry, the tested form may be a part): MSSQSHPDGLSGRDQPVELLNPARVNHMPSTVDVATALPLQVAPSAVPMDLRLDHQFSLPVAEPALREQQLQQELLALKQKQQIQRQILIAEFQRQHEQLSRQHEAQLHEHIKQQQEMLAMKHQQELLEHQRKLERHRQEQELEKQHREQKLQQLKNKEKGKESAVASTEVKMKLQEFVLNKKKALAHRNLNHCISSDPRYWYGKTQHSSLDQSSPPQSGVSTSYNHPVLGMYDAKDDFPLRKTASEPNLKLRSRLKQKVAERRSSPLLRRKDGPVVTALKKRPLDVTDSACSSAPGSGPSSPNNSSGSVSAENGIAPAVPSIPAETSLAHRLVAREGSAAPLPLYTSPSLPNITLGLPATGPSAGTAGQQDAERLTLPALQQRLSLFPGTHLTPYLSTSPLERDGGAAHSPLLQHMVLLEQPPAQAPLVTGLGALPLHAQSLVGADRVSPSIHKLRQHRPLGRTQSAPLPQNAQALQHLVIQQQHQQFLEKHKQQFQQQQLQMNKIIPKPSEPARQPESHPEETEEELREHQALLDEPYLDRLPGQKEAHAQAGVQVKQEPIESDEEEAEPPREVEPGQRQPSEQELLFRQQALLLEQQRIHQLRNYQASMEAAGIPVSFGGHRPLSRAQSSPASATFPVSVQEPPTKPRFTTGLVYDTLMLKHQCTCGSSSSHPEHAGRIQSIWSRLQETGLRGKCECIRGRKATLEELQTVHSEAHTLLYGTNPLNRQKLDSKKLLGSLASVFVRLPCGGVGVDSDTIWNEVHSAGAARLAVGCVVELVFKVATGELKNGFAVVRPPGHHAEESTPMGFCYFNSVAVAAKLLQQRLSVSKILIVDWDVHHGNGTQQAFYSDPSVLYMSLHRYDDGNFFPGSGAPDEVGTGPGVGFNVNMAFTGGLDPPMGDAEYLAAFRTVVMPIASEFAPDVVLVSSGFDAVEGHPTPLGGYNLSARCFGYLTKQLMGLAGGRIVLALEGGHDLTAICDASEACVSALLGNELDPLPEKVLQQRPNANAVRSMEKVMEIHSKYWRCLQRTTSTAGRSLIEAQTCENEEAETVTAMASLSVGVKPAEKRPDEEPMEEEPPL

[11] = target: Histone deacetylase 4 (Homo sapiens) (UniProt P56524); assay: Induction of HDAC4 degradation in human MM1.S cells at 20 uM incubated for 24 hrs by immunoblot analysis; assay type: cell-based
[12] = system: MM1.S; assay: Induction of apoptosis in human MM1.S cells assessed as early apoptosis at 20 uM incubated for 48 hrs by Annexin V-FITC/PI staining based flow cytometry; assay type: functional, cell-based
[13] = system: MM1.S; assay: Induction of apoptosis in human MM1.S cells assessed as late apoptosis at 20 uM incubated for 48 hrs by Annexin V-FITC/PI staining based flow cytometry; assay type: functional, cell-based
[14] = target: T1, Histone deacetylase 1; assay: Induction of HDAC1 degradation in human MM1.S cells incubated for 24 hrs by immunoblot analysis; assay type: cell-based
[15] = target: T1, Histone deacetylase 1; assay: Induction of HDAC1 degradation in human MM1.S cells at 20 uM incubated for 24 hrs in the presence of MG132 by immunoblot analysis; assay type: cell-based

SMILES | Activity [1] | IC50 [2] [nM] | IC50 [3] [nM] | IC50 [4] [nM] | IC50 [5] [nM] | IC50 [6] [nM] | Activity [7] | Activity [9] | inhibition [10] | Activity [11] | Activity [12] | Activity [13] | Emax [14] [%] | other results
O=C(CC12C[C@H]3C[C@@H](C1)C[C@@H](C2)C3)NCCOCCOCCCCCCn1cc(-c2ccc(C(=O)NCc3ccc(C(=O)NO)cc3)cc2)nn1 | inactive |  |  |  |  |  |  |  |  |  |  |  |  | 
O=C(CCCCCCNC(=O)c1ccc(NC(=O)CNC(=O)CC23C[C@H]4C[C@@H](C2)C[C@@H](C3)C4)cc1)NO |  | 580 | 7230 | 133 | 246 | 5.9 | Active | inactive | inactive | inactive | Active | Active | 47 | Activity [8]: Active
O=C(CCCCCCNC(=O)c1ccc(OCc2cn(CCCCCCOCCOCCNC(=O)CC34C[C@H]5C[C@@H](C3)C[C@@H](C4)C5)nn2)cc1)NO |  |  | 48800 |  |  |  |  |  |  |  |  |  |  | 
O=C(CCCCCCNC(=O)c1ccc(NC(=O)CC2c3ccccc3-c3ccccc32)cc1)NO | inactive |  |  |  |  |  |  |  |  |  |  |  |  | 
O=C(CCCCCCNC(=O)c1ccc(NC(=O)CCCNC(=O)CC23C[C@H]4C[C@@H](C2)C[C@@H](C3)C4)cc1)NO |  |  | 23800 |  |  |  |  |  |  |  |  |  |  | 
O=C(CCCCCCNC(=O)c1ccc(NC(=O)CCCCCNC(=O)CC23C[C@H]4C[C@@H](C2)C[C@@H](C3)C4)cc1)NO |  |  | 22800 |  |  |  |  |  |  |  |  |  |  | 
O=C(CC12C[C@H]3C[C@@H](C1)C[C@@H](C2)C3)NCCOCCOCCCCCCn1cc(COc2ccc(C(=O)NCc3ccc(C(=O)NO)cc3)cc2)nn1 | inactive |  |  |  |  |  |  |  |  |  |  |  |  | 
O=C(CCCCCCNC(=O)c1ccc(NC(=O)CCCCCNC(=O)CC2c3ccccc3-c3ccccc32)cc1)NO | inactive |  |  |  |  |  |  |  |  |  |  |  |  | 
O=C(CCCCCCNC(=O)c1ccc(NC(=O)CC23C[C@H]4C[C@@H](C2)C[C@@H](C3)C4)cc1)NO |  | 1120 | 3970 | 192 | 295 | 5.2 | Active | inactive | inactive | inactive | Active | Active | 47 | Activity [8]: Active
O=C(CCCCCCNC(=O)c1ccc(NC(=O)CCCNC(=O)CC2c3ccccc3-c3ccccc32)cc1)NO |  |  | 68100 |  |  |  |  |  |  |  |  |  |  | 
O=C(CCCCCCNC(=O)c1ccc(NC(=O)CNC(=O)CC2c3ccccc3-c3ccccc32)cc1)NO |  | 540 | 11600 | 86.4 | 157 | 3.3 | Active | inactive | inactive | inactive | Active | Active | 47 | 
O=C(CCCCCCNC(=O)c1ccc(-c2cn(CCCCCCOCCOCCNC(=O)CC34C[C@H]5C[C@@H](C3)C[C@@H](C4)C5)nn2)cc1)NO |  | 1170 | 10300 | 350 | 434 | 17.7 | Active | inactive | inactive | inactive | Active | Active | 47 | Activity [15]: inactive

Reference: ChEMBL document CHEMBL5390315, “Targeted Protein Degradation of Histone Deacetylases by Hydrophobically Tagged Inhibitors” (ACS Med Chem Lett, 2023)
